Reference: US20150203517A1, “Prodrugs of Compounds that Enhance Antifungal Activity and Compositions of Said Prodrugs” (priority 2014, published 2015)
Converted amounts (≈) assume the structure as drawn. Counter-ions that a name gives are not always drawn. Like-named read-outs stand apart in the source and are kept apart here.

Experiment: Saline solubility at 1.00 mg/mL and 0.50 mg/mL (with pH by indicator paper)
Assay type: physicochemical
Details: for pH at 1.00 mg/mL of MGCD290 in saline: final concentration of hydroxamate 1 1.00 mg/mL, pH indicator paper; for solubility at 1 h: saline or isotonic, thermodynamic from solid, centrifuged, soluble = no precipitate formed
Method: Assays were performed to determine the saline solubility at 1.00 and 0.50 mg/ml and the stability of certain of the prodrug compounds of Examples 1-111. The following procedures were used.
Step 1. Sample preparation. An amount of the compound sample was precisely weighed to correspond to around 5 mg of the hydroxamate of compound 1, taking into account the mass of the leaving group and the salt factor if applicable. The sample was placed in a 16×125 mm glass screw cap tube. Saline was added so that the final concentration of hydroxamate 1 was 1.00 mg/mL. The pH was measured with pH indicator paper. The tube was shaken for 1 hour on a Vortex apparatus then centrifuged at 3000 rpm (1800 rcf) for 5 minutes. If the compound example was soluble (no precipitate formed) the procedure continued to step 2. If a precipitate formed then the sample was diluted with saline so that the final concentration of the hydroxamate of compound 1 was 0.50 mg/mL, and the shaking and centrifuging steps were repeated. If the compound example was soluble (no precipitate formed) the procedure continued to step 2. If a precipitate formed the sample was discarded. Step 2. HPLC analysis. A 500 μL aliquot of a sample solution prepared according to Step 1 was taken up into a 1.5 mL injection vial to which was added 500 μL of saline. The vial was shaken on a Vortex apparatus, injected into the HPLC instrument (UV detection, zero time point) and the retention time and purity of the sample compound were determined. The injection was repeated after 6 hours and 24 hours, and a comparison was made of the retention time, peak areas and level of degradation (if any) using the GDADI50 method.

[1] = 1.00 mg/mL as hydroxamate 1, shaken 1 hour, read-out: Soluble at 1.00 mg/mL of MGCD290 (Y/N)
[2] = 0.50 mg/mL as hydroxamate 1, shaken 1 hour, read-out: Soluble at 0.5 mg/mL of MGCD290 (Y/N)

Compound	pH at 1.00 mg/mL of MGCD290 in saline	solubility at 1 h [1] [µg/mL]	solubility at 1 h [2] [µg/mL]
COCCOCCOCCOCCOCCOCC(=O)NCCCC[C@H](NC(=O)COCCOCCOCCOCCOCCOC)C(=O)NCCCC(=O)ONC(=O)Cc1ccc(CCCCc2ccccc2)cc1 [Compound 103]	4.5-5	> 1000	
COCCOCCOCCNC(=O)NCCC(=O)NCC1(C(=O)ONC(=O)Cc2ccc(CCCCc3ccccc3)cc2)CC1 [Compound 79, N-1-(2-(2-(2-Methoxyethoxyl)ethoxy)ethyl)-N-3-(2-(1-((2-(4-(4-phenylbutyl)phenyl)acetamidooxy)carbonylcyclopropyl)methyl)carbamoylethyl)urea]	4.5-5	< 1000	< 500
COCCOCCOCCNC(=O)CN(CC(=O)NCCOCCOCCOC)C(=O)CCC(=O)ONC(=O)Cc1ccc(CCCCc2ccccc2)cc1 [Compound 95, 4-oxo-N,N-bis (12-oxo-2,5,8-trioxa-11-azatridecan-13-yl)-4-(2-(4-(4-phenylbutyl)phenyl)acetamidooxy)butanamide]	4.5-5	< 1000	500 to 1000 (≈ 634 to 1270 µM)
O=C(Cc1ccc(CCCCc2ccccc2)cc1)NOC(=O)CCC1CCCCC1 [Compound 52]		< 1000	< 500
CN1CCN(C(=O)ONC(=O)Cc2ccc(CCCCc3ccccc3)cc2)CC1.Cl [Compound 45]	4-4.5	< 1000	< 500
CC(=O)OCC(=O)NCCC[C@H](NC(=O)COC(C)=O)C(=O)NCCC(=O)ONC(=O)Cc1ccc(CCCCc2ccccc2)cc1 [Compound 157]	4.5-5	< 1000	< 500
CCC(=O)ONC(=O)Cc1ccc(CCCCc2ccccc2)cc1 [Compound 52E]		< 1000	< 500
Cl.O=C(Cc1ccc(CCCCc2ccccc2)cc1)NOC(=O)CCCC1CCNCC1 [Compound 121, 2-(4-(4-phenylbutyl)phenyl)-N-(4-(piperidin-4-yl)butanoyloxy) acetamide hydrochloride]	5.-5.5	< 1000	< 500
COCCOCCOCC(=O)NCCCC[C@H](NC(=O)COCCOCCOC)C(=O)ONC(=O)Cc1ccc(CCCCc2ccccc2)cc1 [Compound 71]	4.5-5	< 1000	< 500
COCCOCCOCC(=O)NCC[C@H](NC(=O)COCCOCCOC)C(=O)NCCC(=O)ONC(=O)Cc1ccc(CCCCc2ccccc2)cc1 [Compound 147]	4.5-5	< 1000	< 500
COCCC(=O)ONC(=O)Cc1ccc(CCCCc2ccccc2)cc1 [Compound 52B]		< 1000	< 500
CC(C)NC(=O)ONC(=O)Cc1ccc(CCCCc2ccccc2)cc1 [Compound 73, N-(Isopropylcarbamoyloxy)-2-(4-(4-phenylbutyl)phenyl)acetamide]	4.5-5	< 1000	< 500
COCCOCC(=O)NCCCC[C@H](NC(=O)COCCOC)C(=O)N1CCC[C@H]1C(=O)ONC(=O)Cc1ccc(CCCCc2ccccc2)cc1 [Compound 108]	4.5-5	< 1000	< 500
Cl.O=C(Cc1ccc(CCCCc2ccccc2)cc1)NOC(=O)CCN1CCNCC1=O [Compound 128, N-(3-(2-oxopiperazin-1-yl)propanoyloxy)-2-(4-(4-phenylbutyl)phenyl) acetamide hydrochloride]	4.5-5	> 1000	
COCCOCCOCCOCCOCCOCC(=O)NCC[C@H](NC(=O)COCCOCCOCCOCCOCCOC)C(=O)NCCC(=O)ONC(=O)Cc1ccc(CCCCc2ccccc2)cc1 [Compound 150]	4.5-5	< 1000	< 500
COCCOCCOCC(=O)N1CCN(C(=O)CCC(=O)ONC(=O)Cc2ccc(CCCCc3ccccc3)cc2)CC1 [Compound 124]	5-5.5	> 1000	
CC(=O)OCC(=O)NC[C@H](NC(=O)COC(C)=O)C(=O)NCCC(=O)ONC(=O)Cc1ccc(CCCCc2ccccc2)cc1 [Compound 146]	4.5-5	< 1000	< 500
O=C(Cc1ccc(CCCCc2ccccc2)cc1)NOC(=O)CN1C(=O)OC[C@@H]1c1ccccc1 [Compound 52A]	4.5-5	< 1000	< 500
COCCOCCOCCOCCOCC(=O)NC[C@H](C)C(=O)ONC(=O)Cc1ccc(CCCCc2ccccc2)cc1 [Compound 87, (S)—N-(2-Methyl-3-oxo-3-(2-(4-(4-phenylbutyl)phenyl)acetamidooxy)propyl)-2,5,8,11,14-pentaoxahexadecan-16-amide]	4.5-5	< 1000	< 500
NCCCC[C@H](N)C(=O)N1CCC[C@H]1C(=O)ONC(=O)Cc1ccc(CCCCc2ccccc2)cc1 [Compound 106, N-((S)-1-((S)-2,6-Diaminohexanoyl)pyrrolidine-2-carbonyloxy)-2-(4-(4-phenylbutyl)phenyl) acetamide dihydrochloride]	3.5-4	< 1000	< 500
NCCCCCCCC(=O)ONC(=O)Cc1ccc(CCCCc2ccccc2)cc1 [Compound 7, N-(8-aminooctanoyloxy)-2-(4-(4-phenylbutyl)phenyl)acetamide hydrochloride]		< 1000	< 500
COCCOCCOCC(=O)NCCCC[C@H](N)C(=O)NCCC(=O)ONC(=O)Cc1ccc(CCCCc2ccccc2)cc1.Cl [Compound 142, (S)-2-Amino-6-(2-(2-(2-methoxyethoxy)ethoxy)acetamido)-N-(3-oxo-3-(2-(4-(4-phenylbutyl)phenyl)acetamidooxy)propyl) hexanamide hydrochloride]	5-5.5	> 1000	
COCCOCCOCC(=O)NCCCC[C@H](NC(=O)COCCOCCOC)C(=O)NCC1(C(=O)ONC(=O)Cc2ccc(CCCCc3ccccc3)cc2)CC1 [Compound 162]	4.5-5	> 1000	
COCCOCCOCCOCCOCC(=O)NCCCC[C@H](NC(=O)COCCOCCOCCOCCOC)C(=O)NCCCC(=O)ONC(=O)Cc1ccc(CCCCc2ccccc2)cc1 [Compound 102]	4.5-5	> 1000	
COCCC(=O)NCC[C@H](NC(=O)CCOC)C(=O)NCCC(=O)ONC(=O)Cc1ccc(CCCCc2ccccc2)cc1 [Compound 152]	4.5-5	< 1000	< 500
COCCOCCOCCOCCOCC(=O)NCCCC[C@H](NC(=O)COCCOCCOCCOCCOC)C(=O)NCCC(=O)ONC(=O)Cc1ccc(CCCCc2ccccc2)cc1 [Compound 69]	4.5-5	> 1000	
COCCOCCOCC(=O)NCCCC[C@H](NC(=O)COCCOCCOC)C(=O)N1CCC[C@H]1C(=O)ONC(=O)Cc1ccc(CCCCc2ccccc2)cc1 [Compound 107, N,N′-((S)-6-Oxo-6-((S)-2-((2-(4-(4-phenylbutyl)phenyl)acetamidooxy)carbonyl)pyrrolidin-1-yl)hexane-1,5-diyl)bis(2-(2-(2-methoxyethoxyl)ethoxy)acetamide)]	4.5-5	> 1000	
